In US10092574B2, “Inhibitors of polynucleotide repeat-associated RNA foci and uses thereof” (VALORISATION-RECHERCHE, LIMITED PARTNERSHIP, priority 2013, dated 2018):

Test system: TNNT2 exon 5
Assay: RT-PCR alternative splicing assay, TNNT2 exon 5
Assay type: cell-based, human
Settings: DM1 myoblasts, 20 μM, 7 days; from 90% (FIG. 8C)
Description: Human myoblasts were obtained from the Myosix institute associated with the Association Frangaise contre les Myopathies (AFM). Five primary myoblast lines were obtained as controls, and one line from a DM1 patient with a 3.8 Kb CTG triplet amplification corresponding to approximately 1250 CTG repeats. The human myoblasts are cultivated in HAM-F10 media (SIGMA N6635) with 15% FBS, 1% chick embryo extract, and 390 ng/ml of dexamethasone. One day before adding compounds, 2×10^5 cells were plated in 100 mm plates (for CUGBP1 western blot or RT-PCR alternative splicing assay) or 2×10^4 cells/well are seeded in 12-well plates containing 12 mm round glass coverslips (for FISH to detect RNA foci). […]
For Western blots, CUGBP1 was detected with the 3B1-3D11 monoclonal antibody (mAb) (SIGMA C5112) and GAPDH was detected with the 6C5 mAb (Millipore MAB374). The enhanced chemiluminescence signal (ECL) was acquired and quantified with the ChemiDoc™ MP imaging system (Bio-Rad). […] The alternative splicing of the hnRNPA2/B1 transcript was detected with the primers 5′-[…]-3′ (SEQ ID NO:7) and 5′-[…]-3′ (SEQ ID NO:8). PCR was performed with Taq using standard conditions but the number of amplification cycles was optimized to be in the quantitative range for each gene. […]

Structure (SMILES): CCCN(CCC)S(=O)(=O)c1ccc(NS(=O)(=O)Cc2ccccc2)cc1 [Compound 15]
- inclusion of foetal TNNT2 exon 5, of total transcripts: 76%
